Data from publication PMC7797213, “Vascular effects of serelaxin in patients with stable coronary artery disease: a randomized placebo-controlled trial” (Cardiovascular Research, 2020).

Key:
[1] = test system: patients with stable coronary artery disease; assay: Applanation tonometry-derived augmentation index (AIx); type: in vivo, human; settings: for AIx, absolute value: mean ± SD; for AIx, adjusted mean difference serelaxin versus placebo / AIx, change from baseline (adjusted mean): repeated measures ANCOVA
Protocol: (§1) (30 μg/kg/day) or matching placebo, using a computerized randomization system involving concealed treatment arms. The co-primary endpoints were the change from baseline in global myocardial perfusion reserve (MPR) measured by quantitative perfusion cardiac magnetic resonance (CMR) imaging and the change from baseline in augmentation index (AIx) measured by applanation tonometry. The primary endpoints of MPR and AIx were assessed at baseline and 47 h post-commencement of the infusion (Figure 1).
The applanation tonometry assessments were performed by blinded operators. Augmentation index [AIx = (augmentation pressure/pulse pressure) × 100], and carotid-femoral PWV were measured by applanation tonometry (Sphygmocor®, AtCor Medical, Australia) at a proximal (carotid artery) and a distal (femoral artery) site of the body, utilizing R-wave gated determination of the time interval between the two measurement points. An averaged carotid pressure waveform (from a 10 s recording) was converted into a corresponding central waveform using a validated transfer function (SphygmoCor®, AtCor, Australia).[27]^,[28]

[2] = test system: patients with stable coronary artery disease; assay: Adenosine stress perfusion CMR: myocardial blood flow and myocardial perfusion reserve; type: in vivo, human
Protocol: as §1
A standardized CMR protocol was acquired on 1.5 T (Siemens Avanto) or 3.0 T (Siemens Skyra and Verio) magnetic resonance imaging (MRI) scanners. The CMR protocol included standard localizers, long- and short-axis cine acquisitions, stress and rest first-pass perfusion, and late gadolinium enhancement (LGE) imaging as previously described.[24] For perfusion imaging, a saturation recovery prepared fast gradient echo sequence was used to acquire dynamic contrast-enhanced CMR during adenosine stress (140–280 µg/kg/min for 3 min) and rest, during first-pass of the IV administered contrast agent (Gadovist, 0.05 mmol/kg, 5 mL/s), followed by 20 mL saline injection (5 mL/s). Three short-axis planes through the left ventricle (basal, mid-ventricular, and apical) were obtained.
CMR image collection, blinding, and handling were managed by an independent imaging contract-research organization (CRO; VirtualScopics, Inc., Rochester, NY, USA). The CMR quantitative analyses were performed by blinded academic readers with >3 years of CMR experience (D.C., A.R., and C.B.). Cine images for ventricular volumes and mass and myocardial perfusion images were manually contoured (QMass, Medis, Leiden, Netherlands). Myocardial blood flow (MBF) was derived from stress and rest perfusion images using a Fermi deconvolution method,[25] implemented in MATLAB.[26] Global MPR was calculated from the ratio of global MBF evaluated at stress and at rest (MPR = stress MBF/rest MBF). Global MBF was calculated by averaging the MBF (mL/g/min) for basal, mid, and apical short-axis left ventricular slices. Ascending and descending aortic strain and distensibility were derived from manually contoured end-diastolic and end-systolic aortic cine images. Aortic strain (AS, unit free fraction) = [maximum aortic lumen area − minimum aortic lumen area]/minimum aortic lumen area. Aortic distensibility (AD, mmHg^−^1) = aortic strain/pulse pressure. Ascending aortic peak flow velocity (m/s) was derived from manually contoured phase-velocity encoding sequence images (QFlow, Medis, Leiden, Netherlands). The presence or absence of myocardial scar was qualitatively assessed on the LGE images.

[3] = 0 h (pre-dose baseline), mean ± SD, n=22
[4] = 0 h (pre-dose baseline), mean ± SD, n=24
[5] = 47 h post dose, mean ± SD, n=23
[6] = 47 h post dose, mean ± SD, n=24
[7] = Bayesian, criterion 1: increase between serelaxin and placebo greater than zero
[8] = Bayesian, criterion 2: increase between serelaxin and placebo greater than 20%
[9] = baseline to 47 h, 48 h IV infusion 30 µg/kg/day, ANCOVA, n=22
[10] = baseline to day 3, Bayesian analysis
[11] = baseline to day 3, Bayesian analysis, non-informative priors, n=22
[12] = change baseline to 47 h, ANCOVA

Substance: Serelaxin
- AIx, absolute value ([1]; 0 h (pre-dose baseline), n=25): 25.81 ± 7.70 (25) %
- AIx, adjusted mean difference serelaxin versus placebo ([1]; 2 h): -2.12%
- AIx, change from baseline (adjusted mean) ([1]; 2 h, n=23): -4.09%
- AIx, absolute value ([1]; 2 h post-dose, n=23): 22.17 ± 10.09 (23) %
- AIx, adjusted mean difference serelaxin versus placebo ([1]; 6 h): -2.88%
- AIx, change from baseline (adjusted mean) ([1]; 6 h, n=24): -3.28%
- AIx, absolute value ([1]; 6 h post-dose, n=24): 22.96 ± 6.95 (24) %
- AIx, adjusted mean difference serelaxin versus placebo ([1]; 24 h): –0.84%
- AIx, change from baseline (adjusted mean) ([1]; 24 h, n=24): -0.77%
- AIx, absolute value ([1]; 24 h post-dose, n=24): 25.08 ± 8.10 (24) %
- AIx, adjusted mean difference serelaxin versus placebo ([1]; 47 h): 3.45%
- AIx, change from baseline (adjusted mean) ([1]; 47 h, n=23): 3.49%
- AIx, absolute value ([1]; 47 h post-dose, n=23): 29.57 ± 9.75 (23) %
- AIx, adjusted mean difference serelaxin versus placebo ([1]; 50 h): 3.25%
- AIx, change from baseline (adjusted mean) ([1]; 50 h, n=22): -0.76%
- AIx, absolute value ([1]; 50 h post-dose, n=22): 24.89 ± 12.50 (22) %
- AIx, adjusted mean difference serelaxin versus placebo ([1]; 54 h): -0.98%
- AIx, change from baseline (adjusted mean) ([1]; 54 h, n=22): -1.74%
- AIx, absolute value ([1]; 54 h post-dose, n=22): 24.70 ± 10.62 (22) %
- AIx, absolute value ([1]; Day 30, n=25): 24.98 ± 9.05 (25) %
- AIx, adjusted mean difference serelaxin versus placebo ([1]; Day 30): -1.76%
- AIx, change from baseline (adjusted mean) ([1]; Day 30, n=25): -0.98%
- AIx, absolute value ([1]; Day 180, n=24): 26.15 ± 8.97 (24) %
- AIx, adjusted mean difference serelaxin versus placebo ([1]; Day 180): -0.05%
- AIx, adjusted mean difference serelaxin versus placebo ([1]; Day 180, listed as serelaxin): −0.05%
- AIx, change from baseline (adjusted mean) ([1]; Day 180, n=24): 0.23%
- Apical MBF rest, absolute value [2, 3]: 1.41 ± 0.43 (22) mL/g/min
- Apical perfusion reserve index, absolute value [2, 3]: 2.24 ± 0.89 (22)
- Basal MBF rest, absolute value [2, 3]: 1.16 ± 0.39 (22) mL/g/min
- Basal perfusion reserve index, absolute value [2, 3]: 2.25 ± 0.92 (22)
- Global MPR, absolute value [2, 3]: 2.25 ± 0.88 (22)
- Mean global MBF rest, absolute value [2, 3]: 1.26 ± 0.37 (22) mL/g/min
- Mid MBF rest, absolute value [2, 3]: 1.22 ± 0.37 (22) mL/g/min
- Mid perfusion reserve index, absolute value [2, 3]: 2.24 ± 0.98 (22)
- Apical MBF stress, absolute value [2, 4]: 2.82 ± 1.00 (24) mL/g/min
- Basal MBF stress, absolute value [2, 4]: 2.34 ± 0.90 (24) mL/g/min
- Mean global MBF stress, absolute value [2, 4]: 2.54 ± 0.87 (24) mL/g/min
- Mid MBF stress, absolute value [2, 4]: 2.45 ± 0.84 (24) mL/g/min
- Apical MBF stress, absolute value [2, 5]: 2.66 ± 0.73 (23) mL/g/min
- Apical perfusion reserve index, absolute value [2, 5]: 2.01 ± 0.60 (23)
- Basal MBF stress, absolute value [2, 5]: 2.14 ± 0.84 (23) mL/g/min
- Global MPR, absolute value [2, 5]: 1.98 ± 0.59 (23)
- Mean global MBF stress, absolute value [2, 5]: 2.32 ± 0.67 (23) mL/g/min
- Mid MBF stress, absolute value [2, 5]: 2.16 ± 0.70 (23) mL/g/min
- Mid perfusion reserve index, absolute value [2, 5]: 1.93 ± 0.70 (23)
- Apical MBF rest, absolute value [2, 6]: 1.41 ± 0.34 (24) mL/g/min
- Basal MBF rest, absolute value [2, 6]: 1.13 ± 0.39 (24) mL/g/min
- Mean global MBF rest, absolute value [2, 6]: 1.24 ± 0.32 (24) mL/g/min
- Mid MBF rest, absolute value [2, 6]: 1.17 ± 0.31 (24) mL/g/min
- Mean global MBF rest, probability of success Pr (Criterion 1|data) [2, 7]: 0.80
- Mean global MBF stress, probability of success Pr (Criterion 1|data) [2, 7]: 0.38
- Global MPR, probability of success Pr (Criterion 1|data) ([2]; Bayesian, criterion 1: increase in MPRI between serelaxin and placebo greater than zero): 0.22
- Mean global MBF rest, probability of success Pr (Criterion 2|data) [2, 8]: 0.0014
- Mean global MBF stress, probability of success Pr (Criterion 2|data) [2, 8]: 0.0006
- Global MPR, probability of success Pr (Criterion 2|data) ([2]; Bayesian, criterion 2: increase in MPRI between serelaxin and placebo greater than 20%): 0.0002
- Global MPR, change from baseline (adjusted mean) [2, 9]: -0.24
- Mean global MBF rest, change from baseline (adjusted mean) [2, 9]: 0.01 mL/g/min
- Mid MBF rest, change from baseline (adjusted mean) ([2]; baseline to 47 h, ANCOVA, n=22): -0.01 mL/g/min
- Mid perfusion reserve index, change from baseline (adjusted mean) ([2]; baseline to 47 h, ANCOVA, n=22): -0.26
- Mid MBF stress, change from baseline (adjusted mean) ([2]; baseline to 47 h, ANCOVA, n=23): -0.27 mL/g/min
- Mean global MBF stress, change from baseline (adjusted mean) ([2]; baseline to 47 h, adenosine stress, 48 h IV infusion 30 µg/kg/day, ANCOVA, n=23): -0.22 mL/g/min
- Global MPR, estimate of difference (serelaxin vs placebo), posterior median [2, 10]: -0.11
- Mean global MBF rest, estimate of difference (serelaxin vs placebo), posterior median [2, 10]: 0.05 mL/g/min
- Mean global MBF stress, estimate of difference (serelaxin vs placebo), posterior median [2, 10]: -0.05 mL/g/min
- Global MPR, change from baseline, within treatment posterior median [2, 11]: -0.25
- Mean global MBF rest, change from baseline, within treatment posterior median [2, 11]: 0.01 mL/g/min
- Mean global MBF stress, change from baseline, within treatment posterior median ([2]; baseline to day 3, Bayesian analysis, non-informative priors, n=23): -0.22 mL/g/min
- Mean global MBF rest, adjusted mean difference serelaxin versus placebo ([2]; change baseline to 47 h, 48 h IV infusion 30 µg/kg/day, ANCOVA): 0.05 mL/g/min
- Global MPR, adjusted mean difference serelaxin versus placebo [2, 12]: -0.11
- Mid MBF rest, adjusted mean difference serelaxin versus placebo [2, 12]: 0.06 mL/g/min
- Mid MBF stress, adjusted mean difference serelaxin versus placebo [2, 12]: -0.11 mL/g/min
- Mid perfusion reserve index, adjusted mean difference serelaxin versus placebo [2, 12]: -0.19
- Mean global MBF stress, adjusted mean difference serelaxin versus placebo ([2]; change baseline to 47 h, adenosine stress, ANCOVA): -0.05 mL/g/min
